Data set [1] is described as follows: HbA1c level (efficacy indicator) in type 2 diabetes outpatients on thiazolidinedione therapy. In kind it is in vivo, human. The following applies: average by covariate; type 2 diabetes outpatients treated ≧4 months; from most recent medical records. How it is done:
(§1) Outpatients with type 2 diabetes treated between February and June 2007 with rosiglitazone ([…]) or pioglitazone (n=33) for ≧4 months at the Joslin Diabetes Center affiliate of The Hospital of Central Connecticut (THOCC) in New Britain, Conn. were recruited as volunteer subjects. There were no exclusionary criteria. Each subject provided informed written consent as approved by the THOCC Institutional Review Board.
Hemoglobin A1c: HbA1c levels were measured via ion exchange using the HPLC Variant II (BioRad Laboratories, Hercules Calif.).
Physiogenomic Analysis. Patients treated with rosiglitazone or pioglitazone were recruited from THOCC clinics and provided informed written consent as approved by the THOCC Institutional Review Board. For physiogenomic associations to HbA1c, body mass index and edema, genotype data were obtained on 88 patients, 55 on rosiglitazone and 33 on pioglitazone regimens. A standardized set of phenotypes were collected from the most recent medical records for each patient. Valid genotype data were obtained on the 88 patients. Extensive information on co-medications and disease history were also collected to control for environmental effects.
(§2) HbA1c was selected as an indicator for efficacy, and body mass index and edema as indicators of undesired side effect. […] The phenotypes were analyzed for covariate dependence on age, gender, ethnicity, and treatment.

For data set [2] the following is noted: suggested by various meta analyses; since disputed; cited from earlier work.
On the set-up of data set [3]: species or system human. The conditions noted are these: in vivo.
Text: as §1
Clinical Assessment. Patient characteristics included age, height, weight, body mass index, and the presence/absence of edema as recorded by a physician.
Physiogenomic Analysis. Patients treated with rosiglitazone or pioglitazone were recruited from THOCC clinics and provided informed written consent as approved by the THOCC Institutional Review Board. For physiogenomic associations to HbA1c, body mass index and edema, genotype data were obtained on 88 patients, 55 on rosiglitazone and 33 on pioglitazone regimens. A standardized set of phenotypes were collected from the most recent medical records for each patient. Valid genotype data were obtained on the 88 patients. […]
as §2

`CCc1ccc(CCOc2ccc(CC3SC(=O)NC3=O)cc2)nc1` (stereo not drawn) [pioglitazone] had a HbA1c in data set [1] of 7.4%. In addition, the “risk for myocardial infarction (MI)” value in data set [2] was “does not”. Also, the BMI in data set [3] came to 33.4.

`CN(CCOc1ccc(CC2SC(=O)NC2=O)cc1)c1ccccn1` (stereo not drawn) [rosiglitazone] displayed a HbA1c in data set [1] of 7.4%. The “risk for myocardial infarction (MI)” value in data set [2] is “may increase the risk for myocardial infarction”. Moreover, the BMI in data set [3] turned out to be 33.7.

(Values after US8476012B2, “Physiogenomic method for predicting metabolic and cardiovascular side effects of thiazolidinediones” (Genomas, Inc., priority 2008, dated 2013).)
